Results on ten compounds are retold here after patent US20260092071A1, “COMPOUNDS AND COMPOSITIONS AS SMARCA2/4 DEGRADERS AND USES THEREOF” (REGENTS OF THE UNIVERSITY OF MICHIGAN, priority 2022, published 2026).

The target of one assay is SMARCA4 (Homo sapiens, UniProt P51532). Put plainly: HiBiT assay for protein degradation, Hela SMARCA4-HiBiT cells (A series). The following applies: for DC50: read-out: SMARC A4 Hela HiBit DC50. It is filed as cell-based. Set-up: fuse HiBiT to the carboxy terminus of SMARCA2 (Promega CS302365) or SMARCA4 (Promega CS3023225); host or cells: HeLa (CRISPR/Cas9 HiBiT knock-in). In outline: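 HeLa cells engineered by CRISPR/Cas9 to carry a HiBiT tag fused to the C-terminus of SMARCA4 (Promega CS3023225) were grown in DMEM supplemented with FBS and penicillin-streptomycin. After compound exposure, remaining SMARCA4 protein was quantified using the Nano-Glo® HiBiT Lytic Detection Assay (Promega N3050), and curves were fitted in GraphPad Prism.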
Sequence of SMARCA4 (P51532 whole entry, the tested form may be a part): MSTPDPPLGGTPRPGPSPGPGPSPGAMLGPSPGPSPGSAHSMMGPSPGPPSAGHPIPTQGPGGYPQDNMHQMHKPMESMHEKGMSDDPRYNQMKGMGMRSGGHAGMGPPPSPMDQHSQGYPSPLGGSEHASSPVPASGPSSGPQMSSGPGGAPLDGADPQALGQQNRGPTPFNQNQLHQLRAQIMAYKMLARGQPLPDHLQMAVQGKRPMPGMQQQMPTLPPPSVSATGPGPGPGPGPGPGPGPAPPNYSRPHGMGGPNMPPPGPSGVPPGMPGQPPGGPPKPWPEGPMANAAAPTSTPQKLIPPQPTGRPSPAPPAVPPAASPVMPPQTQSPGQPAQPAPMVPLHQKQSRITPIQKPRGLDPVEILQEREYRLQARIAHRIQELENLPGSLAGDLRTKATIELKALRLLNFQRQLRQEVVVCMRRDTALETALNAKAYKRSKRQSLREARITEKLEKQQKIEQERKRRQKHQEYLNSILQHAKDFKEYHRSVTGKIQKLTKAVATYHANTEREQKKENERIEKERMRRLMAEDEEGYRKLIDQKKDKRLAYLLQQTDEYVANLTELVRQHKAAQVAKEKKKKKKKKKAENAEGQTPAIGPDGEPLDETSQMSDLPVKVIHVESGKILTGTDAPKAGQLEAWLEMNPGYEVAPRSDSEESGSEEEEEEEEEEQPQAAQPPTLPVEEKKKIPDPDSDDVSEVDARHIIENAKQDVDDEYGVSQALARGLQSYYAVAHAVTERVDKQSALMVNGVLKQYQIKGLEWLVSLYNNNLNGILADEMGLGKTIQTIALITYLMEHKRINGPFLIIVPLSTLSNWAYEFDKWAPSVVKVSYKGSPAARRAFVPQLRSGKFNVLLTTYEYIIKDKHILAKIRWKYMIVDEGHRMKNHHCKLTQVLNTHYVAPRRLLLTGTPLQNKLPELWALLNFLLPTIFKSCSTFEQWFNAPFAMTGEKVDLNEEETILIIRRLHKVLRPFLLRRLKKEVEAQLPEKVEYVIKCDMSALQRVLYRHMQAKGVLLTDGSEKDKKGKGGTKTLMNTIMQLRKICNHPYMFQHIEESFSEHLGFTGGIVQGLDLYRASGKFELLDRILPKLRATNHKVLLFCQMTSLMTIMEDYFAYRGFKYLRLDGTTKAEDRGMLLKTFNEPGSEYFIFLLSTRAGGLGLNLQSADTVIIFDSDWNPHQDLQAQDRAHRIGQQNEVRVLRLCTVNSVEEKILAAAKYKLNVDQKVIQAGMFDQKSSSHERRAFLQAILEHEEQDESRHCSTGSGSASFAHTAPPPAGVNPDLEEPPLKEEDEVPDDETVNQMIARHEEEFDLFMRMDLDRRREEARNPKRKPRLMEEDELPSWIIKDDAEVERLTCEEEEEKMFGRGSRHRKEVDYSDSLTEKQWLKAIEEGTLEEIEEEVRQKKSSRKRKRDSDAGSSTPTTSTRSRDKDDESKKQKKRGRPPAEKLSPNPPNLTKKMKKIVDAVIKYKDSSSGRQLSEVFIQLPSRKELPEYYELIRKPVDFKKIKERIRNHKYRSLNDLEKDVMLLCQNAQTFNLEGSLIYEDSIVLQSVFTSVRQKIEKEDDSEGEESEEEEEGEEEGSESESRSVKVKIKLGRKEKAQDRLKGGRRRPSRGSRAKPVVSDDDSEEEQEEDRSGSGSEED
For orientation: With HiBiT, luminescence reflects the tagged protein that the partner subunit can reach.

The next assay has as its target SMARCA2 (Homo sapiens, UniProt P51531). Put plainly: HiBiT assay for protein degradation, Hela SMARCA2-HiBiT cells (A series).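 On SMARC A2 Hela HiBit Dmax (%): 24 h compound treatment.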 The format is cell-based. Set-up: Hela cells were genetically modified via CRISPR/Cas9 to fuse HiBiT to the carboxy terminus of SMARCA2; host or cells: HeLa (CRISPR/Cas9 HiBiT knock-in). The following applies: for DC50: read-out: SMARC A2 Hela HiBit DC50; for Dmax: read-out: SMARC A2 Hela HiBit Dmax (%). In outline:
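HeLa cells engineered by CRISPR/Cas9 to carry a HiBiT tag fused to the C-terminus of SMARCA2 (Promega CS302365) were grown in DMEM supplemented with FBS and penicillin-streptomycin. After treatment, remaining SMARCA2 protein was quantified with the Nano-Glo® HiBiT Lytic Detection Assay (Promega N3050), and curves were fitted in GraphPad Prism.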

Where [1] appears, read: Hela SMARCA4-HiBiT cells, 24 hours treatment.
The mark [2] stands for this setting: Hela SMARCA4-HiBiT cells, 24 hours treatment, read-out: SMARC A4 Hela HiBit Dmax.
The mark [3] stands for this setting: Hela SMARCA2-HiBiT cells, 24 hours treatment.
The mark [4] stands for this setting: Hela SMARCA4-HiBiT cells, 24 hours treatment, read-out: SMARC A4 Hela HiBit Dmax(%).

The structures appear in SMILES notation. Where two headings read alike, the source gives them in different places.

Sequence of SMARCA2 (P51531 whole entry, the tested form may be a part): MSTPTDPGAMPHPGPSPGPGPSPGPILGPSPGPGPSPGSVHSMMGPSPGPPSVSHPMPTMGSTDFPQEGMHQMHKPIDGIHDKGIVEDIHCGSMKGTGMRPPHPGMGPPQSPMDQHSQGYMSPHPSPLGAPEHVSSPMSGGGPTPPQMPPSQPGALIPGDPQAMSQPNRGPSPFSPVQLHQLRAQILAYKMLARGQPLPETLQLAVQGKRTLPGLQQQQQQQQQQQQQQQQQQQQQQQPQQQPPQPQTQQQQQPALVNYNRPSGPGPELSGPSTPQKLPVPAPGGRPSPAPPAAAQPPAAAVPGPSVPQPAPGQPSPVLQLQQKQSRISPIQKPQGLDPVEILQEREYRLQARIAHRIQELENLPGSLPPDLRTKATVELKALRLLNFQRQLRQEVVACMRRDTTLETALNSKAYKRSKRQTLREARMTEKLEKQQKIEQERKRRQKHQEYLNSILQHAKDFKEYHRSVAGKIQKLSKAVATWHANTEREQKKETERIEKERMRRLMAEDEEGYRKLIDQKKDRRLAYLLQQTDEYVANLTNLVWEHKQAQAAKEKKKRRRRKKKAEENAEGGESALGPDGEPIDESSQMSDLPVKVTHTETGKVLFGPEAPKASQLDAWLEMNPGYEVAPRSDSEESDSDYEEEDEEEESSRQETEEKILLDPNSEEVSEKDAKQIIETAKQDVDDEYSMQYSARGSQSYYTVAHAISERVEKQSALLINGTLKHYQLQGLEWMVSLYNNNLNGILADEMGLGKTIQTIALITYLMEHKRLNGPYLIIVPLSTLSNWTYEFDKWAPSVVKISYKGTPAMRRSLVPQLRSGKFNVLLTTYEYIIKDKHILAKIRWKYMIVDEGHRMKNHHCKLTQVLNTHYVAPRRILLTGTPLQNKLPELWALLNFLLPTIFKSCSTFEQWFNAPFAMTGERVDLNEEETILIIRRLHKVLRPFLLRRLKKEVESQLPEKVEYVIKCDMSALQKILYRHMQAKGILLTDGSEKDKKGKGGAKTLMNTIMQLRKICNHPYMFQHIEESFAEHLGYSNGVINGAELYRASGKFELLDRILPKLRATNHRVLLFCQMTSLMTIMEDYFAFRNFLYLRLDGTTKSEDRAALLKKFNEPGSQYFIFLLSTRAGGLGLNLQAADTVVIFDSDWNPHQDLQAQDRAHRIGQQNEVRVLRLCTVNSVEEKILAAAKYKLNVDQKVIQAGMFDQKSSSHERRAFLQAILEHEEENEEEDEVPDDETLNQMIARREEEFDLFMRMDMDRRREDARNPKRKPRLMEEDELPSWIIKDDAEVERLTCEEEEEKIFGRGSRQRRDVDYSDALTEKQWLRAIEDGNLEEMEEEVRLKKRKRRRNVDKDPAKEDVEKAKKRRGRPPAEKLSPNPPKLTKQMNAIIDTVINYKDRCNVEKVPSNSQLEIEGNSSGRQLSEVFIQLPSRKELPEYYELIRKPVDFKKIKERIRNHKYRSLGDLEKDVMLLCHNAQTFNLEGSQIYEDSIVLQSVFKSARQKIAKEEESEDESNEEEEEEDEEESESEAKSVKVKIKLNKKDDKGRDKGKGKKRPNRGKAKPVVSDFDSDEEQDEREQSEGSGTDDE

Regarding `Cc1ncsc1-c1ccc([C@H](CC(=O)N2CCC(c3ccc4c(c3)-n3c(nc(=O)c5c(Cl)cccc53)C43CCCCC3)CC2)NC(=O)[C@@H]2C[C@@H](O)CN2C(=O)[C@@H](n2cc(C3CC3)nn2)C(C)(C)C)cc1` [Compound A140, (2S,4R)—N—((S)-3-(4-(4′-chloro-5′-oxo-5′H-spiro[cyclohexane-1,7′-indolo[1,2-a]quinazolin]-10′-yl)piperidin-1-yl)-1-(4-(4-methylthiazol-5-yl)phenyl)-3-oxopropyl)-1-((S)-2-(4-cyclopropyl-1H-1,2,3-triazol-1-yl)-3,3-dimethylbutanoyl)-4-hydroxypyrrolidine-2-carboxamide], the DC50 at SMARCA4 (setting [1]) was greater than 1000 nM; on SMARCA2 (setting [3]), 10 to 100 nM. Also, the Dmax at SMARCA4 (setting [2]) is less than 50%; on SMARCA2 (setting [3]) it was 70 to 90%.
Consider `Cc1ncsc1-c1ccc([C@H](CN2CCOCC2)NC(=O)[C@@H]2C[C@@H](O)CN2C(=O)[C@H](C2CCCCC2)n2cc([C@H]3CC[C@H](CN4CCC[C@H](c5ccc6c(c5)-n5c(nc(=O)c7c(Cl)cccc75)C65CCCCC5)C4)CC3)nn2)cc1` [Compound A131, (2S,4R)-1-((2S)-2-(4-((1r,4S)-4-((3-(4′-chloro-5′-oxo-5′H-spiro[cyclohexane-1,7′-indolo[1,2-a]quinazolin]-10′-yl)piperidin-1-yl)methyl)cyclohexyl)-1H-1,2,3-triazol-1-yl)-2-cyclohexylacetyl)-4-hydroxy-N—((R)-1-(4-(4-methylthiazol-5-yl)phenyl)-2-morpholinoethyl)pyrrolidine-2-carboxamide], for which the DC50 is greater than 1000 nM at SMARCA4 (setting [1]) and 10 to 100 nM at SMARCA2 (setting [3]). Besides, the Dmax on SMARCA4 (setting [2]) is less than 50%; on SMARCA2 (setting [3]) it was 70 to 90%.
Consider `Cc1ncsc1-c1ccc([C@H](CN2CCOCC2)NC(=O)[C@@H]2C[C@@H](O)CN2C(=O)[C@@H](n2cc([C@H]3CC[C@H](CN4CCC(c5ccc6c(c5)-n5c(nc(=O)c7c(Cl)cccc75)C6(C)C)CC4)CC3)nn2)C(C)(C)O)cc1` [Compound A159, (2S,4R)-1-((S)-2-(4-((1r,4S)-4-((4-(4-chloro-7,7-dimethyl-5-oxo-5,7-dihydroindolo[1,2-a]quinazolin-10-yl)piperidin-1-yl)methyl)cyclohexyl)-1H-1,2,3-triazol-1-yl)-3-hydroxy-3-methylbutanoyl)-4-hydroxy-N-((R)-1-(4-(4-methylthiazol-5-yl)phenyl)-2-morpholinoethyl)pyrrolidine-2-carboxamide], for which the results for the DC50 on SMARCA4 (setting [1]) and on SMARCA2 (setting [3]) were greater than 1000 nM and less than 10 nM, respectively. Moreover, the figures for the Dmax at SMARCA4 (setting [2]) and on SMARCA2 (setting [3]) were 50 to 69% and greater than 90%, respectively.
`CC(C)(C)[C@@H](C(=O)N1C[C@H](O)C[C@H]1C(=O)N[C@@H](CN1CCOCC1)c1ccc(-c2ccncc2)cc1)n1cc([C@H]2CC[C@H](CN3CCC(c4ccc5c(c4)-n4c(nc(=O)c6c(Cl)cccc64)C54CCCCC4)CC3)CC2)nn1` [Compound A172, (2S,4R)-1-((S)-2-(4-((1r,4S)-4-((4-(4′-chloro-5′-oxo-5′H-spiro[cyclohexane-1,7′-indolo[1,2-a]quinazolin]-10′-yl)piperidin-1-yl)methyl)cyclohexyl)-1H-1,2,3-triazol-1-yl)-3,3-dimethylbutanoyl)-4-hydroxy-N—((R)-2-morpholino-1-(4-(pyridin-4-yl)phenyl)ethyl)pyrrolidine-2-carboxamide]: the DC50 is greater than 1000 nM at SMARCA4 (setting [1]) and less than 10 nM on SMARCA2 (setting [3]). For the same compound, the Dmax at SMARCA4 (setting [2]) is less than 50%; on SMARCA2 (setting [3]), greater than 90%.
Turning to `Cc1ncsc1-c1ccc([C@H](C)NC(=O)[C@@H]2C[C@@H](O)CN2C(=O)[C@@H](n2cc(CCN3CCC(c4ccc5c(c4)C4(CCCCC4)c4nc(=O)c6c(Br)cccc6n4-5)CC3)nn2)C(C)(C)C)cc1` [Compound A54, (2S,4R)-1-((S)-2-(4-(2-(4-(4′-bromo-5′-oxo-5′H-spiro[cyclohexane-1,7′-indolo[1,2-a]quinazolin]-9′-yl)piperidin-1-yl)ethyl)-1H-1,2,3-triazol-1-yl)-3,3-dimethylbutanoyl)-4-hydroxy-N—((S)-1-(4-(4-methylthiazol-5-yl)phenyl)ethyl)pyrrolidine-2-carboxamide], the DC50 at SMARCA4 (setting [1]) and on SMARCA2 (setting [3]) was less than 100 nM in each case. Besides, the Dmax on SMARCA4 (setting [4]) and at SMARCA2 (setting [3]) was greater than 90% in each case.
As to `Cc1ncsc1-c1ccc([C@H](C)NC(=O)[C@@H]2C[C@@H](O)CN2C(=O)[C@@H](n2cc(CCN3CCC(c4ccc5c(c4)-n4c(nc(=O)c6c(Br)cccc64)C54CCCCC4)CC3)nn2)C(C)(C)C)cc1` [Compound A48, (2S,4R)-1-((S)-2-(4-(2-(4-(4′-bromo-5′-oxo-5′H-spiro[cyclohexane-1,7′-indolo[1,2-a]quinazolin]-10′-yl)piperidin-1-yl)ethyl)-1H-1,2,3-triazol-1-yl)-3,3-dimethylbutanoyl)-4-hydroxy-N—((S)-1-(4-(4-methylthiazol-5-yl)phenyl)ethyl)pyrrolidine-2-carboxamide], the “SMARC A4 Hela HiBit Dmax(%)” value at SMARCA4 (setting [1]) is “C (C (50-69% degradation))”. In addition, the DC50 at SMARCA4 was 100 to 500 nM; at SMARCA2, less than 100 nM. Besides, on SMARCA2 (setting [3]), the “SMARC A2 Hela HiBit Dmax (%)” value is “A (A (>90% degradation))”.
For `Cc1ncsc1-c1ccc([C@H](Cn2cc(CN3CCC(c4ccc5c(c4)C4(CCCCC4)c4nc(=O)c6c(Br)cccc6n4-5)CC3)nn2)NC(=O)[C@@H]2C[C@@H](O)CN2C(=O)[C@@H](n2cc(C3CC3)nn2)C(C)(C)C)cc1` [Compound A115, (2S,4R)—N—((R)-2-(4-((4-(4′-bromo-5′-oxo-5′H-spiro[cyclohexane-1,7′-indolo[1,2-a]quinazolin]-9′-yl)piperidin-1-yl)methyl)-1H-1,2,3-triazol-1-yl)-1-(4-(4-methylthiazol-5-yl)phenyl)ethyl)-1-((S)-2-(4-cyclopropyl-1H-1,2,3-triazol-1-yl)-3,3-dimethylbutanoyl)-4-hydroxypyrrolidine-2-carboxamide], the DC50 on SMARCA4 (setting [1]) and on SMARCA2 (setting [3]) was 10 to 100 nM in each case. Further, the values for the Dmax on SMARCA4 (setting [2]) and on SMARCA2 (setting [3]) were greater than 90% and 70 to 90%, respectively.
Take `Cc1ncsc1-c1ccc([C@H](CN2CCS(=O)(=O)CC2)NC(=O)[C@@H]2C[C@@H](O)CN2C(=O)[C@@H](n2cc([C@H]3CC[C@H](CN4CCC(c5ccc6c(c5)-n5c(nc(=O)c7c(Cl)cccc75)C65CCCCC5)CC4)CC3)nn2)C(C)(C)C)cc1` [Compound A72, (2S,4R)-1-((S)-2-(4-((1r,4S)-4-((4-(4′-chloro-5′-oxo-5′H-spiro[cyclohexane-1,7′-indolo[1,2-a]quinazolin]-10′-yl)piperidin-1-yl)methyl)cyclohexyl)-1H-1,2,3-triazol-1-yl)-3,3-dimethylbutanoyl)-N—((R)-2-(1,1-dioxidothiomorpholino)-1-(4-(4-methylthiazol-5-yl)phenyl)ethyl)-4-hydroxypyrrolidine-2-carboxamide]: the DC50 on SMARCA4 (setting [1]) is greater than 1000 nM; at SMARCA2 (setting [3]), less than 100 nM. The Dmax on SMARCA4 (setting [4]) was less than 50%; at SMARCA2 (setting [3]), greater than 90%.
Take `Cc1ncoc1-c1ccc([C@H](CN2CCOCC2)NC(=O)[C@@H]2C[C@@H](O)CN2C(=O)[C@@H](n2cc([C@H]3CC[C@H](CN4CCC(c5ccc6c(c5)-n5c(nc(=O)c7c(Cl)cccc75)C65CCCCC5)CC4)CC3)nn2)C(C)(C)C)cc1` [Compound A165, (2S,4R)-1-((S)-2-(4-((1r,4S)-4-((4-(4′-chloro-5′-oxo-5′H-spiro[cyclohexane-1,7′-indolo[1,2-a]quinazolin]-10′-yl)piperidin-1-yl)methyl)cyclohexyl)-1H-1,2,3-triazol-1-yl)-3,3-dimethylbutanoyl)-4-hydroxy-N—((R)-1-(4-(4-methyloxazol-5-yl)phenyl)-2-morpholinoethyl)pyrrolidine-2-carboxamide]: the figures for the DC50 on SMARCA4 (setting [1]) and on SMARCA2 (setting [3]) were greater than 1000 nM and less than 10 nM, respectively. Also, the values for the maximal degradation (Dmax) at SMARCA4 (setting [2]) and at SMARCA2 (setting [3]) were less than 50% and greater than 90%, respectively.
As for `Cc1ncsc1-c1ccc([C@H](CCCCCN2CCC(c3ccc4c(c3)C3(CCCCC3)c3nc(=O)c5c(Br)cccc5n3-4)CC2)NC(=O)[C@H]2C[C@H](O)CN2C(=O)[C@@H](NC(=O)C2(CN3CCOCC3)CC2)C(C)(C)C)cc1` [Compound A38, (2R,4S)—N—((S)-6-(4-(4′-bromo-5′-oxo-5′H-spiro[cyclohexane-1,7′-indolo[1,2-a]quinazolin]-9′-yl)piperidin-1-yl)-1-(4-(4-methylthiazol-5-yl)phenyl)hexyl)-1-((S)-3,3-dimethyl-2-(1-(morpholinomethyl)cyclopropane-1-carboxamido)butanoyl)-4-hydroxypyrrolidine-2-carboxamide], the DC50 at SMARCA4 (setting [1]) was 100 to 500 nM; at SMARCA2 (setting [3]), less than 100 nM. In addition, the Dmax on SMARCA4 (setting [4]) was 70 to 90%; at SMARCA2 (setting [3]) it was greater than 90%.

In general, DC50 refers to the midpoint of the concentration-degradation curve. One may read the Dmax as the greatest extent of degradation seen.
